According to PubChem BioAssay AID330 (DTP/NCI, 2004):
“And” between values parts separate entries of the source, which are not always exact repeats. Equal values may be shown once. Inconclusive results and toxic doses are left out. The calls were made as follows: active = survival T/C of 150% or more; inactive = T/C below 125% in these data.

System: P388 leukemia ip, CD2F1 mice, survival T/C
Assay: NCI In Vivo Anticancer Drug Screen. Data for tumor model P388 Leukemia (intraperitoneal) in CD2F1 (CDF1) mice
Details: endpoint: median survival time, higher = longer survival
Summary of the method: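 Mice carrying the transplanted tumor received test compound or vehicle. Survival was recorded in each group, and the value is the treated-group measurement divided by that of the vehicle-treated control group.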

[1] = dose: 50.0 mg/kg/injection, schedule: Q01DX005 (ip), vehicle: Klucel (hydroxypropylcellulose) (HPC)
[2] = dose: 6.25 mg/kg/injection, schedule: Q01DX005 (ip), vehicle: saline with Tween-80
[3] = dose: 12.5 mg/kg/injection, schedule: Q01DX005 (ip), vehicle: saline with Tween-80
[4] = dose: 25.0 mg/kg/injection, schedule: Q01DX005 (ip), vehicle: saline with Tween-80
[5] = dose: 50.0 mg/kg/injection, schedule: Q01DX009 (ip), vehicle: saline with Tween-80
[6] = dose: 100.0 mg/kg/injection, schedule: Q01DX009 (ip), vehicle: saline with Tween-80
[7] = dose: 200.0 mg/kg/injection, schedule: Q01DX009 (ip), vehicle: saline with Tween-80
[8] = dose: 12.5 mg/kg/injection, schedule: Q01DX009 (ip), vehicle: water
[9] = dose: 25.0 mg/kg/injection, schedule: Q01DX009 (ip), vehicle: water
[10] = dose: 50.0 mg/kg/injection, schedule: Q01DX005 (ip), vehicle: saline
[11] = dose: 100.0 mg/kg/injection, schedule: Q01DX005 (ip), vehicle: saline
[12] = dose: 6.25 mg/kg/injection, schedule: Q01DX009 (ip), vehicle: saline with Tween-80
[13] = dose: 12.5 mg/kg/injection, schedule: Q01DX009 (ip), vehicle: saline with Tween-80
[14] = dose: 25.0 mg/kg/injection, schedule: Q01DX009 (ip), vehicle: saline with Tween-80
[15] = dose: 100.0 mg/kg/injection, schedule: Q01DX009 (ip), vehicle: saline
[16] = dose: 60.0 mg/kg/injection, schedule: Q01DX005 (ip), vehicle: saline with Tween-80
[17] = dose: 120.0 mg/kg/injection, schedule: Q01DX005 (ip), vehicle: saline with Tween-80
[18] = dose: 240.0 mg/kg/injection, schedule: Q01DX005 (ip), vehicle: saline with Tween-80
[19] = dose: 100.0 mg/kg/injection, schedule: Q04DX003 (ip), vehicle: saline with Tween-80
[20] = dose: 200.0 mg/kg/injection, schedule: Q04DX003 (ip), vehicle: saline with Tween-80

Measured: T/C

CN1N=C(C2=NN(C)C(=O)N(C)N2)NN(C)C1=O
inactive: dose: 12.5 mg/kg/injection, schedule: Q01DX005 (ip), vehicle: Klucel (hydroxypropylcellulose) (HPC) 101 % of control | dose: 25.0 mg/kg/injection, schedule: Q01DX005 (ip), vehicle: Klucel (hydroxypropylcellulose) (HPC) 97 % of control | [1] 104 % of control and 105 % of control

CCS(=O)(=O)c1ccc(N2C(N)=NC(N)=NC2(C)C)cc1
inactive: [2] 103 % of control | [3] 100 % of control | [4] 103 % of control

Cc1ncc(C(N)=O)c2c1OC(C)(C)OC2
inactive: dose: 50.0 mg/kg/injection, schedule: Q01DX005 (ip), vehicle: saline with Tween-80 100 % of control | dose: 100.0 mg/kg/injection, schedule: Q01DX005 (ip), vehicle: saline with Tween-80 100 % of control | dose: 200.0 mg/kg/injection, schedule: Q01DX005 (ip), vehicle: saline with Tween-80 99 % of control

CCCCC(O)(CCCC)/C(C)=N/O
inactive: [5] 94 % of control | [6] 91 % of control | [7] 87 % of control

C=C(C)C(=O)OC1CC2OC2(C)CC(OC(=O)C(=C)C)C2C(=C)C(=O)OC2/C=C\1C (configuration not stated)
inactive: dose: 5.0 mg/kg/injection, schedule: Q01DX009 (ip), vehicle: saline with Tween-80 90 % of control | dose: 10.0 mg/kg/injection, schedule: Q01DX009 (ip), vehicle: saline with Tween-80 90 % of control | dose: 20.0 mg/kg/injection, schedule: Q01DX009 (ip), vehicle: saline with Tween-80 100 % of control | dose: 40.0 mg/kg/injection, schedule: Q01DX009 (ip), vehicle: saline with Tween-80 86 % of control

CCCCCCOC(=O)C(O)c1ccccc1 (configuration not stated)
inactive: [6] 100 % of control | [7] 109 % of control

CN1C(=O)N(c2cc(Cl)cc(Cl)c2)C(=N)C1=S
inactive: dose: 60.0 mg/kg/injection, schedule: Q01DX005 (ip), vehicle: Klucel + Tween-80 98 % of control | dose: 120.0 mg/kg/injection, schedule: Q01DX005 (ip), vehicle: Klucel + Tween-80 94 % of control

Cc1ccc(N2CCN(C(=O)C3=Cc4ccccc4OC3)CC2)cc1C
inactive: dose: 100.0 mg/kg/injection, schedule: Q04DX003 (ip), vehicle: Klucel (hydroxypropylcellulose) (HPC) 100 % of control | dose: 200.0 mg/kg/injection, schedule: Q04DX003 (ip), vehicle: Klucel (hydroxypropylcellulose) (HPC) 88 % of control

COc1cc(NC(C)CCCN)c2nc(C)ccc2c1Oc1ccc(F)cc1 (configuration not stated)
inactive: [8] 109 % of control | [9] 92 % of control

N/C(=N/O)NO
inactive: [10] 112 % of control and 113 % of control | [11] 122 % of control

N#CC(C#N)=NO (tested in a mixture with another compound)
inactive: [12] 100 % of control | [13] 98 % of control | [14] 100 % of control | [15] 86 % of control

CCC[CH2][Sn]([CH2]CCC)([O]c1ccccc1C=Nc1ccc(F)cc1)[O]c1ccccc1C=Nc1ccc(F)cc1
inactive: [2] 116 % of control | [3] 122 % of control

N#CC(Cl)CNC(=O)Oc1ccccc1 (configuration not stated)
inactive: [1] 97 % of control

NC(CCC(=O)NCC(=O)O)C(=O)O (configuration not stated)
inactive: [10] 94 % of control | [11] 104 % of control | dose: 200.0 mg/kg/injection, schedule: Q01DX005 (ip), vehicle: saline 102 % of control

Cc1cccc(C)c1NC1=C(Cl)C(=O)c2ccccc2C1=O
inactive: dose: 3.75 mg/kg/injection, schedule: Q01DX005 (ip), vehicle: saline with Tween-80 103 % of control | dose: 7.5 mg/kg/injection, schedule: Q01DX005 (ip), vehicle: saline with Tween-80 97 % of control | dose: 15.0 mg/kg/injection, schedule: Q01DX005 (ip), vehicle: saline with Tween-80 100 % of control

CCCCCCCCCCCCCCCC[N+](C)(C)CCOC(C)=O
inactive: [13] 109 % of control | dose: 12.5 mg/kg/injection, schedule: Q01DX009 (ip), vehicle: saline 111 % of control | [14] 109 % of control | dose: 25.0 mg/kg/injection, schedule: Q01DX009 (ip), vehicle: saline 100 % of control

COC(=O)CC1CSCC1=O (configuration not stated)
inactive: [16] 105 % of control | [17] 100 % of control | [18] 105 % of control

Cc1c(-c2ccc(C(=N)N)cc2)oc(-c2ccc(C(=N)N)cc2)c1C
inactive: dose: 3.13 mg/kg/injection, schedule: Q01DX009 (ip), vehicle: saline with Tween-80 104 % of control | [12] 112 % of control

CC(C)(C)OC(=O)NC(CCC(=O)O)(Cc1ccccc1)C(=O)NC(CCC(=O)OCc1ccccc1)C(=O)OCc1ccccc1 (configuration not stated)
inactive: [2] 98 % of control | [3] 96 % of control | [4] 105 % of control

COP(=O)(O)OC.[V]
inactive: dose: 50.0 mg/kg/injection, schedule: Q04DX003 (ip), vehicle: saline with Tween-80 96 % of control | [19] 103 % of control and 108 % of control | [20] 99 % of control

COC(=O)C1=C(C(=O)OC)NC2=C(C=N1)CCC2
inactive: [16] 102 % of control | [17] 94 % of control | [18] 91 % of control

O=C(Oc1ccccc1)N1CCOCC1
inactive: dose: 50.0 mg/kg/injection, schedule: Q01DX009 (ip), vehicle: other 96 % of control | dose: 100.0 mg/kg/injection, schedule: Q01DX009 (ip), vehicle: other 102 % of control | dose: 200.0 mg/kg/injection, schedule: Q01DX009 (ip), vehicle: other 112 % of control

CCCCS[Si](SC(C)(C)C)(SC(C)(C)C)SC(C)(C)C
inactive: dose: 100.0 mg/kg/injection, schedule: Q04DX002 (ip), vehicle: suspension in saline 95 % of control | dose: 200.0 mg/kg/injection, schedule: Q04DX002 (ip), vehicle: suspension in saline 99 % of control | dose: 400.0 mg/kg/injection, schedule: Q04DX002 (ip), vehicle: suspension in saline 93 % of control

CN(C)CCCNc1cccc2c1C(=O)c1cccc(NCCCN(C)C)c1C2=O
inactive: dose: 4.0 mg/kg/injection, schedule: Q01DX009 (ip), vehicle: acid diluted with saline 105 % of control | dose: 7.5 mg/kg/injection, schedule: Q01DX009 (ip), vehicle: saline 101 % of control | dose: 8.0 mg/kg/injection, schedule: Q01DX009 (ip), vehicle: acid diluted with saline 105 % of control | dose: 12.5 mg/kg/injection, schedule: Q01DX005 (ip), vehicle: water 108 % of control | [8] 100 % of control | dose: 15.0 mg/kg/injection, schedule: Q01DX009 (ip), vehicle: saline 108 % of control | dose: 16.0 mg/kg/injection, schedule: Q01DX009 (ip), vehicle: acid diluted with saline 104 % of control | dose: 25.0 mg/kg/injection, schedule: Q01DX005 (ip), vehicle: water 114 % of control | [9] 100 % of control | dose: 30.0 mg/kg/injection, schedule: Q01DX009 (ip), vehicle: saline 100 % of control | dose: 32.0 mg/kg/injection, schedule: Q01DX009 (ip), vehicle: acid diluted with saline 104 % of control | dose: 50.0 mg/kg/injection, schedule: Q01DX005 (ip), vehicle: water 102 % of control | dose: 50.0 mg/kg/injection, schedule: Q01DX009 (ip), vehicle: water 100 % of control | dose: 60.0 mg/kg/injection, schedule: Q01DX009 (ip), vehicle: saline 102 % of control | dose: 64.0 mg/kg/injection, schedule: Q01DX009 (ip), vehicle: acid diluted with saline 102 % of control

CCOC(=O)C1=C(C)/C(=C\c2[nH]c(C)c(C(=O)OCC)c2C)N=C1C
inactive: [16] 103 % of control | [17] 94 % of control | [18] 96 % of control

CCCC(=O)Nc1ccccc1
inactive: [5] 100 % of control | [6] 100 % of control | [7] 93 % of control

Oc1cncc2ncccc12
inactive: dose: 50.0 mg/kg/injection, schedule: Q01DX009 (ip), vehicle: saline 106 % of control | [15] 100 % of control | dose: 200.0 mg/kg/injection, schedule: Q01DX009 (ip), vehicle: saline 100 % of control

C(=NCCN=CC1CCCC[N-]1)C1CCCC[N-]1.[Cu+2].[O-][Cl+3]([O-])([O-])O (configuration not stated)
inactive: [13] 115 % of control | [14] 98 % of control

Cc1cc2c(cc1C)C(O)(C#Cc1ccccc1)c1c(C)ccc(C)c1C2=O (configuration not stated)
inactive: [19] 100 % of control | [20] 100 % of control | dose: 400.0 mg/kg/injection, schedule: Q04DX003 (ip), vehicle: saline with Tween-80 97 % of control
